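1) Cells in 96-well plates. 2) Compound, 48 h, 5 concentrations. 3) Linear interpolation between surrounding doses. 4) Unreached endpoint = highest concentration. GI50 = concentration required for 50% inhibition of growth.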 Active and inactive are the calls of the source. Rule as the data show it: active = GI50 up to about 1.1 µM and inactive = higher.
Key:
Assay in all cases: DTP human tumour cell line panel, 48 h
[1] = system: T47D
[2] = system: NCI-H460
[3] = system: Malme-3M
[4] = system: SW-620
[5] = system: HOP-92
[6] = system: MDA-MB-231
[7] = system: SF-539
[8] = system: RPMI-8226
[9] = system: U-251
[10] = system: NCI-H226
[11] = system: HCC 2998
[12] = system: RXF 393
[13] = system: CAKI-1
[14] = system: NCI-H522
[15] = system: OVCAR-5
[16] = system: MDA-MB-435
[17] = system: MCF7
[18] = system: HL-60
[19] = system: SNB-19
[20] = system: SR

Compound	GI50 [1]	GI50 [2]	GI50 [3]	GI50 [4]	GI50 [5]	GI50 [6]	GI50 [7]	GI50 [8]	GI50 [9]	GI50 [10]	GI50 [11]	GI50 [12]	GI50 [13]	GI50 [14]	GI50 [15]	GI50 [16]	GI50 [17]	GI50 [18]	GI50 [19]	GI50 [20]
Cn1c(=O)c2c(O)cc(N)nc2n(C)c1=O	> 100 µM (inactive)	> 100 µM (inactive)	> 100 µM (inactive)	> 100 µM (inactive)	67.3 µM (inactive)	> 100 µM (inactive)	> 100 µM (inactive)	> 100 µM (inactive)	> 100 µM (inactive)	> 100 µM (inactive)	> 100 µM (inactive)	> 100 µM (inactive)	28.9 µM (inactive)	> 100 µM (inactive)	> 100 µM (inactive)	> 100 µM (inactive)	> 100 µM (inactive)	> 100 µM (inactive)	> 100 µM (inactive)	–
CC1C2(C)OC(=N)C(C#N)(C(c3ccccc3)O2)C1(C#N)C#N (stereo not given)	20 µM (inactive)	12.6 µM (inactive)	28.3 µM (inactive)	> 10 µM (inactive)	12.6 µM (inactive)	16.9 µM (inactive)	20.3 µM (inactive)	–	18.7 µM (inactive)	> 100 µM (inactive)	10.8 µM (inactive)	30.3 µM (inactive)	13.7 µM (inactive)	–	25.5 µM (inactive)	33.3 µM (inactive)	21.2 µM (inactive)	16.6 µM (inactive)	55.2 µM (inactive)	–
N=C(N)NS(=O)(=O)c1ccc(Nc2c3ccccc3nc3c(C(=O)NNCCO)cccc23)cc1	0.12 µM (active)	0.158 µM (active)	0.14 µM (active)	0.164 µM (active)	0.284 µM (active)	0.261 µM (active)	0.303 µM (active)	0.137 µM (active)	0.139 µM (active)	0.19 µM (active)	0.211 µM (active)	0.186 µM (active)	0.198 µM (active)	0.127 µM (active)	0.499 µM (active)	0.0585 µM (active)	0.109 µM (active)	0.227 µM (active)	0.276 µM (active)	–
CC(C)OC1OC(CO)C(O)CC1n1cc(F)c(=O)[nH]c1=O (stereo not given)	48.4 µM (inactive)	> 100 µM (inactive)	86.1 µM (inactive)	30.9 µM (inactive)	> 100 µM (inactive)	> 100 µM (inactive)	> 100 µM (inactive)	39.4 µM (inactive)	66.8 µM (inactive)	> 100 µM (inactive)	> 100 µM (inactive)	47.5 µM (inactive)	24.6 µM (inactive)	16.2 µM (inactive)	> 100 µM (inactive)	> 100 µM (inactive)	46 µM (inactive)	–	> 100 µM (inactive)	–
Nc1nc(N)c(NC(=O)CCCO)c(=O)[nH]1	> 100 µM (inactive)	> 100 µM (inactive)	> 100 µM (inactive)	> 100 µM (inactive)	> 100 µM (inactive)	> 100 µM (inactive)	> 100 µM (inactive)	> 100 µM (inactive)	> 100 µM (inactive)	> 100 µM (inactive)	> 100 µM (inactive)	> 100 µM (inactive)	> 100 µM (inactive)	67.1 µM (inactive)	> 100 µM (inactive)	> 100 µM (inactive)	> 100 µM (inactive)	–	> 100 µM (inactive)	–
Oc1ccc(Br)cc1/C=N/c1cccc(C(F)(F)F)c1	19.9 µM (inactive)	> 100 µM (inactive)	23.5 µM (inactive)	24 µM (inactive)	35.2 µM (inactive)	23.4 µM (inactive)	20.8 µM (inactive)	28.1 µM (inactive)	6.89 µM (inactive)	17.3 µM (inactive)	23.1 µM (inactive)	> 100 µM (inactive)	66.7 µM (inactive)	> 100 µM (inactive)	> 100 µM (inactive)	30.5 µM (inactive)	14.5 µM (inactive)	3.2 µM (inactive)	39.4 µM (inactive)	–
CCOC(=O)c1c(NS(=O)(=O)c2ccc(Br)cc2)sc2c1CCCC2	6.61 µM (inactive)	6.4 µM (inactive)	12.9 µM (inactive)	16.5 µM (inactive)	–	7.29 µM (inactive)	7.91 µM (inactive)	4.6 µM (inactive)	12.4 µM (inactive)	3.66 µM (inactive)	16.7 µM (inactive)	2.67 µM (inactive)	10.2 µM (inactive)	2.03 µM (inactive)	6.71 µM (inactive)	19.4 µM (inactive)	10.3 µM (inactive)	6.18 µM (inactive)	7.46 µM (inactive)	19.7 µM (inactive)
O=C1CC(=O)c2c(Cl)sc(Cl)c21	> 100 µM (inactive)	> 100 µM (inactive)	21.6 µM (inactive)	91 µM (inactive)	> 100 µM (inactive)	> 100 µM (inactive)	> 100 µM (inactive)	–	> 100 µM (inactive)	86.1 µM (inactive)	–	16.1 µM (inactive)	> 100 µM (inactive)	23.8 µM (inactive)	> 100 µM (inactive)	64.1 µM (inactive)	45.5 µM (inactive)	30.3 µM (inactive)	–	25.6 µM (inactive)
OC1(c2ccccc2)CC2CCC(C1)N2CCCC1(c2ccc(F)cc2)OCCO1 (stereo not given)	> 100 µM (inactive)	–	98.4 µM (inactive)	> 100 µM (inactive)	–	> 100 µM (inactive)	> 100 µM (inactive)	61.4 µM (inactive)	> 100 µM (inactive)	–	–	59.7 µM (inactive)	> 100 µM (inactive)	> 100 µM (inactive)	79.3 µM (inactive)	> 100 µM (inactive)	> 100 µM (inactive)	6.78 µM (inactive)	–	27.3 µM (inactive)
C=CC[C@H](N=C(SC)SC)C(=O)N1C(=O)N(C)[C@@H](C)[C@H]1c1ccccc1	40.5 µM (inactive)	34.1 µM (inactive)	51.6 µM (inactive)	30.1 µM (inactive)	23.3 µM (inactive)	> 100 µM (inactive)	36.4 µM (inactive)	–	40.8 µM (inactive)	31.6 µM (inactive)	27.9 µM (inactive)	33.8 µM (inactive)	25.1 µM (inactive)	14.9 µM (inactive)	54.6 µM (inactive)	33.8 µM (inactive)	34.8 µM (inactive)	34 µM (inactive)	58.7 µM (inactive)	–
CCOC(=O)/C(=C\NC(=S)Nc1ccc(Cl)c(Cl)c1)C(=O)c1ccccc1	7.82 µM (inactive)	42.1 µM (inactive)	63.5 µM (inactive)	39.2 µM (inactive)	–	25.9 µM (inactive)	3.12 µM (inactive)	5.12 µM (inactive)	37.2 µM (inactive)	13.9 µM (inactive)	17.3 µM (inactive)	21.6 µM (inactive)	12.9 µM (inactive)	6.3 µM (inactive)	36.2 µM (inactive)	17.7 µM (inactive)	33.3 µM (inactive)	22.8 µM (inactive)	–	20.4 µM (inactive)
C=CC(=C)CCC(Br)C(C)(C)Cl (stereo not given)	> 100 µM (inactive)	> 100 µM (inactive)	> 100 µM (inactive)	> 100 µM (inactive)	> 100 µM (inactive)	> 100 µM (inactive)	> 100 µM (inactive)	> 100 µM (inactive)	> 100 µM (inactive)	> 100 µM (inactive)	> 100 µM (inactive)	> 100 µM (inactive)	–	24.3 µM (inactive)	> 100 µM (inactive)	> 100 µM (inactive)	46.6 µM (inactive)	37.1 µM (inactive)	> 100 µM (inactive)	–
CC(=O)NCc1nc(C#N)c(N)o1	> 100 µM (inactive)	> 100 µM (inactive)	> 100 µM (inactive)	> 100 µM (inactive)	> 100 µM (inactive)	> 100 µM (inactive)	> 100 µM (inactive)	> 100 µM (inactive)	> 100 µM (inactive)	> 100 µM (inactive)	> 100 µM (inactive)	> 100 µM (inactive)	> 100 µM (inactive)	> 100 µM (inactive)	> 100 µM (inactive)	> 100 µM (inactive)	> 100 µM (inactive)	> 100 µM (inactive)	> 100 µM (inactive)	–
COC(=O)C1=C(C)C(=O)[C@]23C(CCCC[C@H]12)C(=O)[C@H](C(=O)OC)C3C (stereo not given in full)	> 100 µM (inactive)	> 100 µM (inactive)	> 100 µM (inactive)	> 100 µM (inactive)	> 100 µM (inactive)	> 100 µM (inactive)	> 100 µM (inactive)	–	> 100 µM (inactive)	> 100 µM (inactive)	> 100 µM (inactive)	–	> 100 µM (inactive)	> 100 µM (inactive)	> 100 µM (inactive)	> 100 µM (inactive)	> 100 µM (inactive)	> 100 µM (inactive)	> 100 µM (inactive)	50.9 µM (inactive)
Nc1nc(O)nc2c1ncn2C1OC(CO)C(O)C1O (stereo not given)	25.1 µM (inactive)	> 100 µM (inactive)	> 100 µM (inactive)	50.7 µM (inactive)	57.1 µM (inactive)	38 µM (inactive)	–	61.7 µM (inactive)	> 100 µM (inactive)	69.3 µM (inactive)	25.7 µM (inactive)	72.3 µM (inactive)	54 µM (inactive)	> 100 µM (inactive)	> 100 µM (inactive)	57.5 µM (inactive)	29 µM (inactive)	22 µM (inactive)	> 100 µM (inactive)	–
